Assay results from patent US5001118A, “Method for preventing senescence and increasing bone mass” (priority 1986, dated 1991).

Assays:
ICR type mice [1] = experiment: Biochemical inspection of blood serum, daily oral administration; assay type: in vivo, mouse (ICR type); set-up: key: .dwnarw.: Decrease below control; →: No difference from control; .uparw.: Increase above control
Description: The results are compared below with respect to the following items with those obtained of the male- and female-groups using only the solvent without the present substance.

ICR type mice [2] = experiment: Weight of internal organs, daily oral administration; assay type: in vivo, mouse (ICR type); set-up: key: .dwnarw.: Decrease below control; →: No difference from control; .uparw.: Increase above control
Experimental: Solutions obtained by dissolving the present substance, 24R,25-(OH)2 -D3 in a prescribed concentration in triglyceride of a fatty acid of 8 to 10 carbon atoms containing 1% of ethanol were administered respectively, orally, forcedly and daily to three male-groups and three female-groups of ICR type mice 5 weeks old at dosages of 10, 100, and 1,000 μg/kg.day. The results are compared below with respect to the following items with those obtained of the male- and female-groups using only the solvent without the present substance.

In the case of C=C1CC[C@H](O)C/C1=C/C=C1\CCC[C@]2(C)[C@@H]([C@H](C)CC[C@@H](O)C(C)(C)O)CC[C@@H]12 [24R,25-(OH)2 -D3], the A/G (ICR type mice [1]; female, 10 μg/kg) is reported as “→”, the ALP (ICR type mice [1]; female, 10 μg/kg) is reported as “→” and the Alb (ICR type mice [1]; female, 10 μg/kg) is reported as “→”. For the same molecule, the BUN (ICR type mice [1]; female, 10 μg/kg) was “→”, the Ca (ICR type mice [1]; female, 10 μg/kg) was “→” and the GOT (ICR type mice [1]; female, 10 μg/kg) was “→”. For the same molecule, the GPT (ICR type mice [1]; female, 10 μg/kg) was “→”, the Glu (ICR type mice [1]; female, 10 μg/kg) was “→” and the I-P (ICR type mice [1]; female, 10 μg/kg) was “→”. The LDH (ICR type mice [1]; female, 10 μg/kg) was “→”, the T-Bil (ICR type mice [1]; female, 10 μg/kg) was “→” and the T-CHO (ICR type mice [1]; female, 10 μg/kg) was “→”. The T-P (ICR type mice [1]; female, 10 μg/kg) was “→”, the A/G (ICR type mice [1]; female, 100 μg/kg) was “→” and the ALP (ICR type mice [1]; female, 100 μg/kg) was “→”. The Alb (ICR type mice [1]; female, 100 μg/kg) was “→”, the BUN (ICR type mice [1]; female, 100 μg/kg) was “→” and the Ca (ICR type mice [1]; female, 100 μg/kg) was “→”. The GOT (ICR type mice [1]; female, 100 μg/kg) was “→”, the GPT (ICR type mice [1]; female, 100 μg/kg) was “→” and the Glu (ICR type mice [1]; female, 100 μg/kg) was “→”. For the same molecule, the I-P (ICR type mice [1]; female, 100 μg/kg) was “→”, the LDH (ICR type mice [1]; female, 100 μg/kg) was “→” and the T-Bil (ICR type mice [1]; female, 100 μg/kg) was “→”. For the same molecule, the T-CHO (ICR type mice [1]; female, 100 μg/kg) was “→”, the T-P (ICR type mice [1]; female, 100 μg/kg) was “→” and the A/G (ICR type mice [1]; female, 1000 μg/kg) was “→”. The ALP (ICR type mice [1]; female, 1000 μg/kg) was “→”, the Alb (ICR type mice [1]; female, 1000 μg/kg) was “→” and the BUN (ICR type mice [1]; female, 1000 μg/kg) was “→”. The Ca (ICR type mice [1]; female, 1000 μg/kg) was “→”, the GOT (ICR type mice [1]; female, 1000 μg/kg) was “→” and the GPT (ICR type mice [1]; female, 1000 μg/kg) was “→”. The Glu (ICR type mice [1]; female, 1000 μg/kg) was “→”, the I-P (ICR type mice [1]; female, 1000 μg/kg) was “→” and the LDH (ICR type mice [1]; female, 1000 μg/kg) was “→”. For the same molecule, the T-Bil (ICR type mice [1]; female, 1000 μg/kg) was “→”, the T-CHO (ICR type mice [1]; female, 1000 μg/kg) was “→” and the T-P (ICR type mice [1]; female, 1000 μg/kg) was “→”. The A/G (ICR type mice [1]; male, 10 μg/kg) was “→”, the ALP (ICR type mice [1]; male, 10 μg/kg) was “→” and the Alb (ICR type mice [1]; male, 10 μg/kg) was “→”. The BUN (ICR type mice [1]; male, 10 μg/kg) was “→”, the Ca (ICR type mice [1]; male, 10 μg/kg) was “→” and the GOT (ICR type mice [1]; male, 10 μg/kg) was “→”. For the same molecule, the GPT (ICR type mice [1]; male, 10 μg/kg) was “→”, the Glu (ICR type mice [1]; male, 10 μg/kg) was “→” and the I-P (ICR type mice [1]; male, 10 μg/kg) was “→”. For the same molecule, the LDH (ICR type mice [1]; male, 10 μg/kg) was “→”, the T-Bil (ICR type mice [1]; male, 10 μg/kg) was “→” and the T-CHO (ICR type mice [1]; male, 10 μg/kg) was “→”. For the same molecule, the T-P (ICR type mice [1]; male, 10 μg/kg) was “→”, the A/G (ICR type mice [1]; male, 100 μg/kg) was “→” and the ALP (ICR type mice [1]; male, 100 μg/kg) was “→”. The Alb (ICR type mice [1]; male, 100 μg/kg) was “→”, the BUN (ICR type mice [1]; male, 100 μg/kg) was “→” and the Ca (ICR type mice [1]; male, 100 μg/kg) was “→”. For the same molecule, the GOT (ICR type mice [1]; male, 100 μg/kg) was “→”, the GPT (ICR type mice [1]; male, 100 μg/kg) was “→” and the Glu (ICR type mice [1]; male, 100 μg/kg) was “→”. The I-P (ICR type mice [1]; male, 100 μg/kg) was “→”, the LDH (ICR type mice [1]; male, 100 μg/kg) was “→” and the T-Bil (ICR type mice [1]; male, 100 μg/kg) was “→”. For the same molecule, the T-CHO (ICR type mice [1]; male, 100 μg/kg) was “→”, the T-P (ICR type mice [1]; male, 100 μg/kg) was “→” and the A/G (ICR type mice [1]; male, 1000 μg/kg) was “→”. For the same molecule, the ALP (ICR type mice [1]; male, 1000 μg/kg) was “→”, the Alb (ICR type mice [1]; male, 1000 μg/kg) was “→” and the BUN (ICR type mice [1]; male, 1000 μg/kg) was “.dwnarw”. The Ca (ICR type mice [1]; male, 1000 μg/kg) was “→”, the GOT (ICR type mice [1]; male, 1000 μg/kg) was “→” and the GPT (ICR type mice [1]; male, 1000 μg/kg) was “→”. For the same molecule, the Glu (ICR type mice [1]; male, 1000 μg/kg) was “.dwnarw”, the I-P (ICR type mice [1]; male, 1000 μg/kg) was “→” and the LDH (ICR type mice [1]; male, 1000 μg/kg) was “.dwnarw”. The T-Bil (ICR type mice [1]; male, 1000 μg/kg) was “.dwnarw”, the T-CHO (ICR type mice [1]; male, 1000 μg/kg) was “→” and the T-P (ICR type mice [1]; male, 1000 μg/kg) was “→”. For the same molecule, the “Weight of adrenal gland” value (ICR type mice [2]; female, 10 μg/kg) was “→”, the Weight of brain (ICR type mice [2]; female, 10 μg/kg) was “→” and the Weight of heart (ICR type mice [2]; female, 10 μg/kg) was “→”. The Weight of kidney (ICR type mice [2]; female, 10 μg/kg) was “→”, the Weight of liver (ICR type mice [2]; female, 10 μg/kg) was “→” and the Weight of lung (ICR type mice [2]; female, 10 μg/kg) was “→”. For the same molecule, the Weight of ovary (ICR type mice [2]; female, 10 μg/kg) was “→”, the “Weight of pituitary gland” value (ICR type mice [2]; female, 10 μg/kg) was “→” and the Weight of spleen (ICR type mice [2]; female, 10 μg/kg) was “→”. For the same molecule, the “Weight of thymus gland” value (ICR type mice [2]; female, 10 μg/kg) was “→”, the Weight of uterus (ICR type mice [2]; female, 10 μg/kg) was “→” and the “Weight of adrenal gland” value (ICR type mice [2]; female, 100 μg/kg) was “→”. For the same molecule, the Weight of brain (ICR type mice [2]; female, 100 μg/kg) was “→”, the Weight of heart (ICR type mice [2]; female, 100 μg/kg) was “→” and the Weight of kidney (ICR type mice [2]; female, 100 μg/kg) was “→”. For the same molecule, the Weight of liver (ICR type mice [2]; female, 100 μg/kg) was “→”, the Weight of lung (ICR type mice [2]; female, 100 μg/kg) was “→” and the Weight of ovary (ICR type mice [2]; female, 100 μg/kg) was “→”. For the same molecule, the “Weight of pituitary gland” value (ICR type mice [2]; female, 100 μg/kg) was “→”, the Weight of spleen (ICR type mice [2]; female, 100 μg/kg) was “→” and the “Weight of thymus gland” value (ICR type mice [2]; female, 100 μg/kg) was “→”. The Weight of uterus (ICR type mice [2]; female, 100 μg/kg) was “→”, the “Weight of adrenal gland” value (ICR type mice [2]; female, 1000 μg/kg) was “→” and the Weight of brain (ICR type mice [2]; female, 1000 μg/kg) was “→”. The Weight of heart (ICR type mice [2]; female, 1000 μg/kg) was “→”, the Weight of kidney (ICR type mice [2]; female, 1000 μg/kg) was “→” and the Weight of liver (ICR type mice [2]; female, 1000 μg/kg) was “→”. The Weight of lung (ICR type mice [2]; female, 1000 μg/kg) was “→”, the Weight of ovary (ICR type mice [2]; female, 1000 μg/kg) was “→” and the “Weight of pituitary gland” value (ICR type mice [2]; female, 1000 μg/kg) was “→”. The Weight of spleen (ICR type mice [2]; female, 1000 μg/kg) was “→”, the “Weight of thymus gland” value (ICR type mice [2]; female, 1000 μg/kg) was “→” and the Weight of uterus (ICR type mice [2]; female, 1000 μg/kg) was “→”. The “Weight of adrenal gland” value (ICR type mice [2]; male, 10 μg/kg) was “→”, the Weight of brain (ICR type mice [2]; male, 10 μg/kg) was “→” and the Weight of heart (ICR type mice [2]; male, 10 μg/kg) was “→”. The Weight of kidney (ICR type mice [2]; male, 10 μg/kg) was “→”, the Weight of liver (ICR type mice [2]; male, 10 μg/kg) was “→” and the Weight of lung (ICR type mice [2]; male, 10 μg/kg) was “→”. The “Weight of pituitary gland” value (ICR type mice [2]; male, 10 μg/kg) was “→”, the Weight of spleen (ICR type mice [2]; male, 10 μg/kg) was “→” and the Weight of testis (ICR type mice [2]; male, 10 μg/kg) was “→”. For the same molecule, the “Weight of thymus gland” value (ICR type mice [2]; male, 10 μg/kg) was “→”, the “Weight of adrenal gland” value (ICR type mice [2]; male, 100 μg/kg) was “→” and the Weight of brain (ICR type mice [2]; male, 100 μg/kg) was “→”. For the same molecule, the Weight of heart (ICR type mice [2]; male, 100 μg/kg) was “→”, the Weight of kidney (ICR type mice [2]; male, 100 μg/kg) was “→” and the Weight of liver (ICR type mice [2]; male, 100 μg/kg) was “→”. For the same molecule, the Weight of lung (ICR type mice [2]; male, 100 μg/kg) was “→”, the “Weight of pituitary gland” value (ICR type mice [2]; male, 100 μg/kg) was “→” and the Weight of spleen (ICR type mice [2]; male, 100 μg/kg) was “→”. The Weight of testis (ICR type mice [2]; male, 100 μg/kg) was “→”, the “Weight of thymus gland” value (ICR type mice [2]; male, 100 μg/kg) was “→” and the “Weight of adrenal gland” value (ICR type mice [2]; male, 1000 μg/kg) was “→”. For the same molecule, the Weight of brain (ICR type mice [2]; male, 1000 μg/kg) was “→”, the Weight of heart (ICR type mice [2]; male, 1000 μg/kg) was “→” and the Weight of kidney (ICR type mice [2]; male, 1000 μg/kg) was “→”. The Weight of liver (ICR type mice [2]; male, 1000 μg/kg) was “→”, the Weight of lung (ICR type mice [2]; male, 1000 μg/kg) was “→” and the “Weight of pituitary gland” value (ICR type mice [2]; male, 1000 μg/kg) was “→”. The Weight of spleen (ICR type mice [2]; male, 1000 μg/kg) was “→”, the Weight of testis (ICR type mice [2]; male, 1000 μg/kg) was “→” and the “Weight of thymus gland” value (ICR type mice [2]; male, 1000 μg/kg) was “→”.
